PubChem BioAssay (NCI)
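Exposure lasted 48 hours, with cells grown in 96-well plates and compounds tested at five concentrations. TGI is the concentration that stops growth completely.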

Key:
Test in all cases: NCI-60 cell line screen, 48 h
786-0 renal = system: 786-0 renal
A549 NSCLC = system: A549 NSCLC
ACHN renal = system: ACHN renal
BT-549 breast = system: BT-549 breast
CAKI-1 renal = system: CAKI-1 renal
CCRF-CEM leukemia = system: CCRF-CEM leukemia
COLO 205 colon = system: COLO 205 colon
DU-145 prostate = system: DU-145 prostate
EKVX NSCLC = system: EKVX NSCLC
HCC-2998 colon = system: HCC-2998 colon
HCT-116 colon = system: HCT-116 colon
HCT-15 colon = system: HCT-15 colon
HL-60(TB) leukemia = system: HL-60(TB) leukemia
HOP-62 NSCLC = system: HOP-62 NSCLC
HOP-92 NSCLC = system: HOP-92 NSCLC
HS 578T breast = system: HS 578T breast
HT29 colon = system: HT29 colon
IGROV1 ovarian = system: IGROV1 ovarian
K-562 leukemia = system: K-562 leukemia
KM12 colon = system: KM12 colon
LOX IMVI melanoma = system: LOX IMVI melanoma
M14 melanoma = system: M14 melanoma
MALME-3M melanoma = system: MALME-3M melanoma
MCF7 breast = system: MCF7 breast
MDA-MB-231 breast = system: MDA-MB-231 breast
MDA-MB-435 = system: MDA-MB-435
MDA-N = system: MDA-N
MOLT-4 leukemia = system: MOLT-4 leukemia
NCI-H226 lung = system: NCI-H226 lung
NCI-H23 lung = system: NCI-H23 lung
NCI-H522 lung = system: NCI-H522 lung
NCI/ADR-RES ovarian = system: NCI/ADR-RES ovarian
OVCAR-3 ovarian = system: OVCAR-3 ovarian
OVCAR-4 ovarian = system: OVCAR-4 ovarian
OVCAR-5 ovarian = system: OVCAR-5 ovarian
OVCAR-8 ovarian = system: OVCAR-8 ovarian
PC-3 prostate = system: PC-3 prostate
RPMI-8226 leukemia = system: RPMI-8226 leukemia
SF-268 CNS = system: SF-268 CNS
SF-295 CNS = system: SF-295 CNS
SF-539 CNS = system: SF-539 CNS
SK-MEL-2 melanoma = system: SK-MEL-2 melanoma
SK-MEL-28 melanoma = system: SK-MEL-28 melanoma
SK-MEL-5 melanoma = system: SK-MEL-5 melanoma
SK-OV-3 ovarian = system: SK-OV-3 ovarian
SN12C renal = system: SN12C renal
SNB-19 CNS = system: SNB-19 CNS
SNB-75 CNS = system: SNB-75 CNS
SR leukemia = system: SR leukemia
SW-620 colon = system: SW-620 colon
T-47D breast = system: T-47D breast
TK-10 renal = system: TK-10 renal
U251 CNS = system: U251 CNS
UACC-257 melanoma = system: UACC-257 melanoma
UACC-62 melanoma = system: UACC-62 melanoma
UO-31 renal = system: UO-31 renal
A498 renal = system: A498 renal
NCI-H460 lung = system: NCI-H460 lung
RXF 393 renal = system: RXF 393 renal

**Q.** Which TGI (786-0 renal) does the source give for `COC1CC(OC2C(C)OC(OC3C(C)OC(OC4C(C)OC(O[C@H]5CC[C@@]6(C)C(=CC[C@]7(O)[C@@H]6C[C@@H](O)[C@@]6(C)[C@]7(O)CC[C@@]6(O)C(C)=O)C5)CC4OC)CC3OC)CC2OC)OC(C)C1O` (stereo partly drawn) here?
**A.** > 12.5 µM

**Q.** What about the TGI (A549 NSCLC) of the same compound?
**A.** > 12.5 µM

**Q.** What about the TGI (ACHN renal) of the same compound?
**A.** > 12.5 µM

**Q.** And the TGI (BT-549 breast)?
**A.** > 12.5 µM

**Q.** What about the TGI (CAKI-1 renal) of the same compound?
**A.** > 12.5 µM

**Q.** And the TGI (CCRF-CEM leukemia)?
**A.** > 12.5 µM

**Q.** What about the TGI (COLO 205 colon) of the same compound?
**A.** > 12.5 µM

**Q.** And the TGI (DU-145 prostate)?
**A.** > 12.5 µM

**Q.** And the TGI (EKVX NSCLC)?
**A.** > 12.5 µM

**Q.** And the TGI (HCC-2998 colon)?
**A.** > 12.5 µM

**Q.** And the TGI (HCT-116 colon)?
**A.** > 12.5 µM

**Q.** What about the TGI (HCT-15 colon) of the same compound?
**A.** > 12.5 µM

**Q.** And the TGI (HL-60(TB) leukemia)?
**A.** > 12.5 µM

**Q.** What about the TGI (HOP-62 NSCLC) of the same compound?
**A.** > 12.5 µM

**Q.** And the TGI (HOP-92 NSCLC)?
**A.** > 12.5 µM

**Q.** What about the TGI (HS 578T breast) of the same compound?
**A.** > 12.5 µM

**Q.** And the TGI (HT29 colon)?
**A.** > 12.5 µM

**Q.** What about the TGI (IGROV1 ovarian) of the same compound?
**A.** > 12.5 µM

**Q.** And the TGI (K-562 leukemia)?
**A.** > 12.5 µM

**Q.** What about the TGI (KM12 colon) of the same compound?
**A.** > 12.5 µM

**Q.** What about the TGI (LOX IMVI melanoma) of the same compound?
**A.** > 12.5 µM

**Q.** What about the TGI (M14 melanoma) of the same compound?
**A.** > 12.5 µM

**Q.** What about the TGI (MALME-3M melanoma) of the same compound?
**A.** > 12.5 µM

**Q.** And the TGI (MCF7 breast)?
**A.** > 12.5 µM

**Q.** And the TGI (MDA-MB-231 breast)?
**A.** > 12.5 µM

**Q.** What about the TGI (MDA-MB-435) of the same compound?
**A.** > 12.5 µM

**Q.** And the TGI (MDA-N)?
**A.** > 12.5 µM

**Q.** What about the TGI (MOLT-4 leukemia) of the same compound?
**A.** > 12.5 µM

**Q.** And the TGI (NCI-H226 lung)?
**A.** > 12.5 µM

**Q.** What about the TGI (NCI-H23 lung) of the same compound?
**A.** > 12.5 µM

**Q.** What about the TGI (NCI-H522 lung) of the same compound?
**A.** > 12.5 µM

**Q.** What about the TGI (NCI/ADR-RES ovarian) of the same compound?
**A.** > 12.5 µM

**Q.** What about the TGI (OVCAR-3 ovarian) of the same compound?
**A.** > 12.5 µM

**Q.** What about the TGI (OVCAR-4 ovarian) of the same compound?
**A.** > 12.5 µM

**Q.** And the TGI (OVCAR-5 ovarian)?
**A.** > 12.5 µM

**Q.** And the TGI (OVCAR-8 ovarian)?
**A.** > 12.5 µM

**Q.** And the TGI (PC-3 prostate)?
**A.** > 12.5 µM

**Q.** What about the TGI (RPMI-8226 leukemia) of the same compound?
**A.** > 12.5 µM

**Q.** And the TGI (SF-268 CNS)?
**A.** > 12.5 µM

**Q.** What about the TGI (SF-295 CNS) of the same compound?
**A.** > 12.5 µM

**Q.** And the TGI (SF-539 CNS)?
**A.** > 12.5 µM

**Q.** What about the TGI (SK-MEL-2 melanoma) of the same compound?
**A.** > 12.5 µM

**Q.** What about the TGI (SK-MEL-28 melanoma) of the same compound?
**A.** > 12.5 µM

**Q.** And the TGI (SK-MEL-5 melanoma)?
**A.** > 12.5 µM

**Q.** And the TGI (SK-OV-3 ovarian)?
**A.** > 12.5 µM

**Q.** What about the TGI (SN12C renal) of the same compound?
**A.** > 12.5 µM

**Q.** What about the TGI (SNB-19 CNS) of the same compound?
**A.** > 12.5 µM

**Q.** And the TGI (SNB-75 CNS)?
**A.** > 12.5 µM

**Q.** What about the TGI (SR leukemia) of the same compound?
**A.** > 12.5 µM

**Q.** What about the TGI (SW-620 colon) of the same compound?
**A.** > 12.5 µM

**Q.** What about the TGI (T-47D breast) of the same compound?
**A.** > 12.5 µM

**Q.** And the TGI (TK-10 renal)?
**A.** > 12.5 µM

**Q.** And the TGI (U251 CNS)?
**A.** > 12.5 µM

**Q.** What about the TGI (UACC-257 melanoma) of the same compound?
**A.** > 12.5 µM

**Q.** And the TGI (UACC-62 melanoma)?
**A.** > 12.5 µM

**Q.** And the TGI (UO-31 renal)?
**A.** > 12.5 µM

**Q.** What does the source list for `O=[N+]([O-])C(C=C(n1nnc2ccccc21)n1nnc2ccccc21)=C(n1nnc2ccccc21)n1nnc2ccccc21`?
**A.** TGI (786-0 renal): > 100 µM; TGI (A498 renal): > 100 µM; TGI (A549 NSCLC): > 100 µM; TGI (ACHN renal): > 100 µM; TGI (BT-549 breast): > 100 µM; TGI (CAKI-1 renal): > 100 µM; TGI (CCRF-CEM leukemia): > 100 µM; TGI (COLO 205 colon): > 100 µM; TGI (DU-145 prostate): > 100 µM; TGI (EKVX NSCLC): > 100 µM; TGI (HCC-2998 colon): > 100 µM; TGI (HCT-116 colon): > 100 µM; TGI (HCT-15 colon): > 100 µM; TGI (HL-60(TB) leukemia): > 100 µM; TGI (HOP-62 NSCLC): > 100 µM; TGI (HOP-92 NSCLC): > 100 µM; TGI (HS 578T breast): > 100 µM; TGI (HT29 colon): > 100 µM; TGI (IGROV1 ovarian): > 100 µM; TGI (K-562 leukemia): > 100 µM; TGI (KM12 colon): > 100 µM; TGI (LOX IMVI melanoma): > 100 µM; TGI (M14 melanoma): > 100 µM; TGI (MALME-3M melanoma): > 100 µM; TGI (MCF7 breast): > 100 µM; TGI (MDA-MB-231 breast): > 100 µM; TGI (MDA-MB-435): > 100 µM; TGI (MDA-N): > 100 µM; TGI (MOLT-4 leukemia): 93.4 µM; TGI (NCI-H226 lung): > 100 µM; TGI (NCI-H23 lung): > 100 µM; TGI (NCI-H460 lung): > 100 µM; TGI (NCI/ADR-RES ovarian): > 100 µM; TGI (OVCAR-3 ovarian): > 100 µM; TGI (OVCAR-5 ovarian): > 100 µM; TGI (OVCAR-8 ovarian): > 100 µM; TGI (PC-3 prostate): > 100 µM; TGI (RPMI-8226 leukemia): > 100 µM; TGI (RXF 393 renal): > 100 µM; TGI (SF-268 CNS): > 100 µM; TGI (SF-295 CNS): > 100 µM; TGI (SF-539 CNS): > 100 µM; TGI (SK-OV-3 ovarian): > 100 µM; TGI (SN12C renal): > 100 µM; TGI (SNB-19 CNS): > 100 µM; TGI (SR leukemia): 66.6 µM; TGI (SW-620 colon): > 100 µM; TGI (T-47D breast): > 100 µM; TGI (TK-10 renal): > 100 µM; TGI (U251 CNS): > 100 µM; TGI (UACC-62 melanoma): > 100 µM; TGI (UO-31 renal): > 100 µM
